Source: patent publication US9856732B2, “Tracers” (RESTRACK AS, priority 2012, dated 2018)

Tests used:
[1] = Oil/water partition coefficient from flooding experiment on silica-packed column at residual oil saturation; format: physicochemical; settings: 80° C., oil 2 and water 2
Description: Structural formulas of examples of compounds from four groups of fluorinated benzyl alcohols tested are shown herein, including in FIG. 1. The compounds could be analyzed using gas chromatography with mass spectrometric detection (GC-MS) in produced water after clean-up and pre-concentration of the water samples. Detection limits of 50 ng/l (ppt) could be obtained depending on the level of interferences from the sample matrix. Several compounds from the four groups were selected and tested for thermal stability, flooding properties, and adsorption to rock materials. In addition, two pilot field tests were initiated. Some results from the laboratory tests are shown in Table 1 and in FIG. 2 to FIG. 10. Partition coefficients were measured at 80° C., oil 2 and water 2.
A still further feature of the benzyl alcohol compounds used in the various aspects of the present invention is their highly suitable partition coefficients. For example, compounds of formula i) or preferred compounds as described herein may have partition coefficients between 1.0 and 8.0. The partition coefficients should not be too high because the partitioning tracers then will be retained too much compared to the passive water tracer. Preferable values for the partition coefficients will be between 1.2 and 7, preferably between 1.3 and 5. In all cases referred to herein partition coefficients are measured at 80° C., oil 2 and water 2, unless otherwise stated.
To test the dynamic properties of the tracer candidate an experimental setup containing a residual oil saturated column was used. […] The column was packed with 70 μm silica beads. Dead crude oil was pumped through the column after which artificial formation water was pumped through the system until residual oil saturation was reached. The tracer candidate was then co-injected with tritiated water (HTO) as a pulse into the water flow. The experiments were conducted with different oil types, different water compositions and at several temperatures.

[2] = Biodegradability in seawater (OECD 306)
Description: Tracers must be stable in the harsh reservoir environment, thus their results in the seawater biodegradation component of the HOCNF scheme “OECD (306 1999) guideline for testing chemicals, biodegradation in seawater” often show less than 20% biodegradation ensuring that they automatically are placed in the red category.
(§1) The most important environmental properties were tested on several example compounds. These are biodegradability in seawater and toxicity screening for Skeletonema Costatum. The latter gives a good general indication of the total toxicity of a chemical and in combination with the biodegradability gives a strong indication of the total impact of the environment.

Skeletonema Costatum = test: Toxicity screening for Skeletonema Costatum (ISO 10253; 2006); format: cell-based; settings: exposure of 72 hr
From the text: In addition to biodegradation in seawater other tests to be conducted are the toxicity test with Acardia Tonsa (ISO14669; 1999), providing a median lethal concentration (LC50) after an exposure of 48 hr, toxicity test with Skeletonema Costatum (ISO 10253; 2006), providing a median effect concentration (EC50/EL50) after an exposure of 72 hr, toxicity test with Scophthalmus Maximus (PARCOM 2006), providing the mortality of fish after 96 hr at EC50 value and bioaccumulation potential (OECD Guidelines for Testing of Chemicals, 117), providing the logarithm of n-octanol/water partition coefficient.
as §1

For `OCc1ccc(F)c(F)c1` [3,4-DFBOH, 3,4-difluorobenzyl alcohol], the “partition coefficient K” value [1] was 2.1.

With `OCc1ccccc1F` [2-FBOH, 2-fluorobenzyl alcohol] the “partition coefficient K” value [1] was 1.5.

With `OCc1c(F)cccc1F` [2,6-DFBOH, 2,6-difluorobenzyl alcohol] the “Biodegradability BOD28” value [2] was 0% and the “partition coefficient K” value [1] was 1.5.

In the case of `OCc1c(F)ccc(F)c1F` [2,3,6-TFBOH, 2,3,6-trifluorobenzyl alcohol], the “Biodegradability BOD28” value [2] is reported as 2% and the “partition coefficient K” value [1] is reported as 1.9.

With `OCc1ccc(F)cc1` [4-FBOH] the “Biodegradability BOD28” value [2] was 3% and the “Toxicity EL50” value (Skeletonema Costatum) was “Ca 10 mg/L”.

For `OCc1cc(F)cc(F)c1` [3,5-DFBOH, 3,5-difluorobenzyl alcohol], the “Biodegradability BOD28” value [2] was 2% and the “partition coefficient K” value [1] was 2.9.

For `OCc1c(F)cc(F)cc1F` [2,4,6-TFBOH, 2,4,6-trifluorobenzyl alcohol], the “Biodegradability BOD28” value [2] was 0-3% and the “partition coefficient K” value [1] was 2.4.
